Our source for the melting point values is a melting point compilation (Tetko et al.; mined from patent text by program, amines drawn as free bases though some values may be those of a salt).

Some results are limits rather than exact numbers.

Usually melting point stands for the temperature, or range, at which the solid turns liquid. In the case of `CCOC(=O)c1cc(C)nc(NN=C(C)C)c1`, the melting point fell in the range of 79 to 82 °C.

In the case of `O=C(CCCCl)Nc1cccc2cccnc12`, the melting point is 62 to 63 °C. In turn, `Cc1ccc(-c2nc(COc3ccc(CCCn4ccnc4)cc3)cs2)s1` yielded a melting point of 78 to 79 °C. Compound `Cn1nc(-c2c(F)cccc2Cl)nc1-c1cc(-c2cccc(C(F)(F)F)c2)sc1Cl` came in with a melting point of 53 to 54 °C. Consider `Cc1ccnc(NC(=O)c2nnc3ccccc3c2O)c1`, for which the melting point lay within 339 to 341 °C. Regarding `O=C(O)C(Cc1ccccc1)Oc1ccc2cc(-c3oc4ccccc4c3Br)ccc2c1Br` (stereo not drawn), the melting point lay in the range of 206 to 209 °C. The same measure for `Cc1cccc(-n2nc(C)cc2-c2ccnc(NCc3ccccc3)c2)c1`: 73 to 75 °C.

In turn, `COCCOCCOCC(=O)Nc1cc(N)cc(C(=O)O)c1` gave a melting point of 130 to 131 °C. `NC1=NN(c2ccccc2)C(c2ccc(Cl)cc2)C1` (stereo not drawn): the melting point fell in the range of 184 to 186 °C.

As for `CS(=O)(=O)c1ccc(-c2cc(F)c(F)cc2-c2ccc3c(c2)OCO3)cc1`, the melting point was 110 to 111 °C. `Oc1ccc(Br)cc1-c1nc2ccccc2s1` showed a melting point of 164 to 165 °C. `CC(C)n1cnc2c(NCc3ccccc3)nc(Cl)nc21` yielded a melting point of 181 to 182 °C. The compound `CON=C(C#N)C(N)=O` displayed a melting point of 170 to 172 °C. For `NC(=O)N1C(=O)C(C(=O)c2ccc(Cl)s2)c2cc(Cl)ccc21` (stereo not drawn), the melting point lay within 220 to 222 °C.

Consider `Nc1nc(N)c(CCCCc2ccc(C(=O)N[C@@H](CCC(=O)O)C(=O)O)cc2)c(O)n1`, for which the melting point lay in the range of 169 to 171 °C. In turn, `NC(=O)N1C(=O)Cc2ccccc21` yielded a melting point of 179 to 180 °C. Regarding `CCC1(CC)c2cc(Br)ccc2-c2ccc(-c3nc4ccccc4s3)cc21`, the melting point is 134 to 135 °C. `CCN(CC)c1cccc(COc2ccc(N)nn2)c1` displayed a melting point of 115 to 118 °C. For the compound `CC(C)(C)OC(=O)N[C@H](CNC(=O)Nc1ccccc1)Cc1ccccc1`, the melting point was found to be 154 °C.

In turn, `CC(C)CN1CCN(c2cc3ccccc3c(=O)[nH]2)CC1CO` (stereo not drawn) returned a melting point of 130 to 132 °C. As to `CCCCCNc1c(C(=O)OCC)cnc2cn[nH]c12`, the melting point fell in the range of 153 to 155 °C.

Consider `Nc1ccc(S(=O)(=O)N2CCN(c3ccccn3)CC2)cc1`, for which the melting point lay in the range of 208 to 210 °C. For `Cc1ccc(C(=S)c2c(C)cc(Cc3ccc(N)cc3F)n2C)cc1`, the melting point was 199 to 200 °C. In the case of `COc1cccc2c1nc(C1CC1)n2CC=C(C)C` it was 41 to 42 °C; in that of `CC(C)Cc1ccc(C(C)C(=O)NCCCCn2cnc3c(N)nc4ccccc4c32)cc1` (stereo not drawn), 172 to 173 °C. Compound `CCCCc1ccc(OCCN2CCN(c3cc(Cl)nnc3Cl)CC2)cc1` showed a melting point of 83 to 84 °C.

`Nc1nccc(-c2c[nH]c3nccc(Cl)c23)n1` returned a melting point of over 210 °C. In the case of `COc1ccc(C=CC(=O)O)cc1-c1cc2c(cc1OCCCCCO)C(C)(C)CCC2(C)C` it was 115 to 117 °C; in that of `CCOC(=O)C(Cc1ccc2ccccc2c1Br)C(=O)OCC`, 60 to 65 °C; in that of `O=[N+]([O-])c1ccc(Oc2ccc(Oc3ccc(Oc4ccc(Oc5ccc([N+](=O)[O-])cc5)cc4)cc3)cc2)cc1`, 142 to 143 °C. As to `CN(C)C(=O)CC(=O)c1ccc(C(=O)CC(=O)C(C)(C)C)cc1`, the melting point was in the range of 159 to 160 °C. The compound `CCOC1=NS(=O)(=O)C(C#N)=C1N` had a melting point of 228 to 229 °C. In the case of `OCCCNc1cc(-c2ccnc(Nc3cccc(OC(F)(F)C(F)F)c3)n2)ccn1` it was 141 to 145 °C; in that of `CC(=O)c1cccc(Oc2ncc(C(F)(F)F)cc2F)c1`, 65 to 67 °C. As to `CC(=C1SC(=O)NC1=O)c1ccc(OCCOc2c(-c3ccc(F)c(F)c3)n(C)c3ccccc3c2=O)c(F)c1`, the melting point fell in the range of 204 to 206 °C.

Regarding `CN(C)S(=O)(=O)NCC1COc2ccccc2O1` (stereo not drawn), the melting point is 76 to 78 °C. The same measure for `COc1ccc(-c2nc(C)c(-c3cccnc3)n2O)cc1OC`: 131 to 135 °C; for `CCCCCCCC1=CC(=O)N(c2ccccc2)C1=CBr`: 63 to 65 °C. `COC(=O)c1cnoc1-c1ccc(Cl)cc1Cl`: the melting point was 83 to 84 °C. For the compound `Cc1cc(=O)c(-c2ccc(Oc3ccc(C(F)(F)F)cc3)cc2)c(C)[nH]1`, the melting point is 258 to 260 °C. The compound `CCC(=O)c1cnccn1` gave a melting point of 46 to 47 °C.

In turn, `CC(C)(c1ccccc1)n1nnc(-c2ccccc2-c2ccc(CBr)cc2)n1` showed a melting point of 108 to 109 °C. As for `CC(C)N(C(=O)c1c(Cl)cccc1[Si](C)(C)C)C(C)C`, the melting point was 96 to 97.5 °C.

`c1ccc(COc2ccc3[nH]c(-c4ccc[nH]4)cc3c2)cc1`: the melting point fell in the range of 178 to 182 °C. `C=C(C)CNc1cc(C(=O)O)cc(S(N)(=O)=O)c1Sc1ccc(N)cc1` returned a melting point of 237 to 240 °C.

For the compound `Cc1n[nH]c(C)c1-c1cncc(OC2SCC(O)C(O)C2O)c1` (stereo not drawn), the melting point worked out at 227 °C. The same measure for `COc1ccc(C(=O)CC(=O)C(F)(F)C(F)(F)F)cc1OC`: 72 °C; for `NC(=S)Nc1cc(C(F)(F)F)ccc1N1CCOCC1`: 196 to 197 °C; for `COc1nc2c(C)cc(C)cc2c(-c2ccccc2Cl)c1NC(=O)Nc1cccc(C(F)(F)F)c1`: 151 to 153 °C.

As for `CCCCSc1cc(SCCCC)c2ccc3c(SCCCC)cc(SCCCC)c4ccc1c2c43`, the melting point lay within 91 to 92 °C. `CS(=O)(=O)OCCOc1ccc(CN2C(=O)C(=O)c3cc(S(=O)(=O)N4CCCC4COc4ccccc4)ccc32)cc1` (stereo not drawn) returned a melting point of 152 to 153 °C. For the compound `O=c1ccc2c([N+](=O)[O-])cccc2n1O`, the melting point came to 205 °C. The compound `O=c1c(Br)c(OCc2ccccc2Cl)ccn1Cc1ccccc1` came in with a melting point of 143 to 146 °C. In turn, `CC1(C)CC(=O)C(c2c(Cl)cc(N)cc2Cl)C(=O)C1` yielded a melting point of 243 °C.

Compound `CC(=O)NC[C@H]1CN(c2ccc3c(c2)CS(=O)(=O)CC3)C(=O)O1` returned a melting point of 177 to 179 °C. Compound `Cn1c2ccc(Cl)cc2c(=O)n2nc(C(=O)O)cc12` came in with a melting point of 280 °C. In the case of `COc1cc(-c2nc(NC3CCCC3)c3c(C)c(C#N)sc3n2)cc(OC)c1OC` it was 218 to 220 °C. The same measure for `NS(=O)(=O)c1ccc2c(c1)C(=O)C1(CCOC1=O)S2` (stereo not drawn): 199 to 201 °C; for `COc1ccccc1-c1c(O)c2ccc(Cl)cc2[nH]c1=O`: over 300 °C.

As for `COc1nc(NCCc2ccc(F)cc2)nc(-c2ccc(OC)c(S(=O)(=O)NC3CC3)c2)n1`, the melting point was 200 to 201 °C. Turning to `COc1cc(OC)c2c(=O)cc(-c3ccc(OC)c(I)c3)oc2c1`, the melting point lay in the range of 209 to 210 °C. Compound `CC(=O)c1cc(Br)c(N)c(CN(C)C)c1` came in with a melting point of 92 to 95 °C. On to `CNC(=O)C1CC(c2ccc(-c3ccc(N4C[C@H](Cn5ccnn5)OC4=O)cc3F)cn2)=NO1` (stereo partly drawn), for which the melting point fell in the range of 185 to 195 °C.

`Cc1ccc(C2CC(N)=NN2c2ccccc2)cc1` (stereo not drawn): the melting point was 165 to 166 °C. `CN(C)CCC=C1c2ccccc2CCc2ccc(S(C)(=O)=O)cc21` came in with a melting point of 109 to 110 °C. Compound `CN1Cc2cccnc2C(N2CCN(C(=O)Cc3ccncc3)CC2)c2ccc(Cl)cc21` (stereo not drawn) returned a melting point of 83 to 87 °C. The compound `COc1nc(C)nc(NC(=O)NS(=O)(=O)c2cccc3c2OS(=O)(=O)C(C)=C3)n1` gave a melting point of 203 to 205 °C. For the compound `N#CCCc1cccc2c1N(Cc1cccc(/C=C/c3ccc4ccccc4n3)c1)CC2`, the melting point fell in the range of 126 to 129 °C. For `CCOC(=O)c1cn(-c2cnsn2)c2c(F)c(F)c(F)cc2c1=O`, the melting point fell in the range of 167 to 169 °C. Compound `COc1ccc(CN2C(=O)[C@H](N3C(=O)c4ccccc4C3=O)[C@@H]2C(=O)OCc2ccccc2)c(OC)c1` (relative stereo) had a melting point of 198 to 200 °C. For the compound `COc1ccc(C2=NN(C3CCCCCCC3)C(=O)[C@H]3CC=CC[C@@H]23)cc1OC` (relative stereo), the melting point is 75 to 77 °C.

`CC(CC(=O)c1ccc2c(c1)C(C)(C)CCC2(C)C)C(=O)O` (stereo not drawn): the melting point worked out at 165 °C.

On to `CC(C)(C)N(CC(=O)Nc1n[nH]c(=S)s1)C(=O)C(Cc1ccc(OCc2ccccc2)cc1)NC(=O)OCc1ccccc1` (stereo not drawn), for which the melting point stood at 146 °C.

In turn, `COc1cc(OC(C)(C)C(=O)O)c(C=CC(=O)c2ccc(C(=O)O)cc2)cc1-c1cccs1` yielded a melting point of 223 to 225 °C. Turning to `CCCCCc1ccc(-c2ccc(-c3ccc(CC)cc3)cc2F)s1`, the melting point was determined as 44 °C. In turn, `Nc1cccc(NC(=O)C(=O)N2CCC(Cc3ccccc3)CC2)c1` gave a melting point of 103 to 105 °C. For `Cn1cc(C(N)=O)c(-c2ccc([N+](=O)[O-])o2)n1`, the melting point is 251 to 252 °C. `O=C(c1c(Cl)cccc1Cl)n1cnc(-c2ccccc2)c1` returned a melting point of 135 to 136 °C. `FC(F)(F)c1ccc(Nc2nc3ccccc3o2)cc1` had a melting point of 180 to 182 °C. The same measure for `CCCc1c(OCCCSc2ccc(C(=O)CCC(=O)O)c(F)c2)ccc(C(C)=O)c1O`: 149 to 150 °C. For `CC(=O)c1ccc2c(c1O)CC(O)CO2` (stereo not drawn), the melting point fell in the range of 130 to 132 °C. `Nc1nn2cc(-c3ccc([N+](=O)[O-])o3)nc2s1` came in with a melting point of 257 to 258 °C. Compound `COc1ccc(S(=O)(=O)Nc2ccncc2)c2c1[nH]c1ccccc12` returned a melting point of 311 to 313 °C. `[O-][N+](C1C2CC(c3ccccc32)C1Cl)=[N+]([O-])C1C2CC(c3ccccc32)C1Cl` (stereo not drawn) yielded a melting point of 187 to 188 °C.

Compound `Cn1ccc2c1CCn1ccnc1C2=C1CCN(C2CCN(C(=O)c3cc(C(F)(F)F)cc(C(F)(F)F)c3)C(Cc3ccccc3)C2)CC1` (stereo not drawn) came in with a melting point of 133 °C. For `CNC(=O)Nc1ccc(N2CCN(c3ccncc3)CC2)cc1`, the melting point was 258 to 260 °C.

In the case of `COc1ccc(NC(=O)c2ccc([N+](=O)[O-])cc2)cc1`, the melting point was 200 °C. In the case of `CC(C)(C)OC(=O)CC[C@H](NC(=O)c1ccc(C=Cc2cnc3nc(N)nc(N)c3c2)cc1)C(=O)OC(C)(C)C` it was over 300 °C.
